US20230330093A1, “APPLICATION OF NITROGEN-CONTAINING SATURATED HETEROCYCLIC COMPOUND” (SHANGHAI PHARMACEUTICALS HOLDING CO., LTD., priority 2020, published 2023)

Legend:
cynomolgus monkeys = test: 4-week safety study: hematology and coagulation; format: in vivo
Method: […] (1) Hematological and coagulation index examination were performed using a Bayer ADVIA2120 (Germany) and a Sysmex CA-1500 (Japan). (2) The serum biochemical examination was assessed using a HITACHI 7080 automated analyzer (Japan) and an Easylyte PLUS electrolyte analyzer (MEDICA, America). (3) The 24-h pooled urine of each animal was collected by a tray under each cage. Urinalysis was carried out using Uritest-300 (China). (4) The 24-h pooled faeces of each monkey were collected by a tray under each cage. Fecal occult blood was detected. (5) ACCESS 2 Chemiluminescence immunoassay was used for myocardial troponin (TropI, non-GLP) test.

[1] = test system: rhesus monkeys with spontaneous chronic kidney disease; test: Safety tolerance study (adverse events, liver and renal function, food intake, body weight, hematology), 8-week administration; format: in vivo, Macaca mulatta (Rhesus Macaque); conditions: 1, 2, 5 mg/kg qd groups, 8-week administration period
Excerpt: Glucose and lipid metabolism and liver function: FPG, FRA, LDL-c, HDL-c, TG, TC, NT-proBNP, ALT, AST, TBIL, etc., twice before administration, once at weeks 4 and 8 respectively after administration;
Other biochemical indicators and hematology testing, once each before and after administration;
Body weight: once before administration, once a week during the administration period;
Hematology testing equipment: Siemens ADVIA 2120i Hematology Systems.
Number of observations: Observation was performed once a day.
Observation method: observation in cage.
Observation content: injection site, skin, hair, eyes, ears, nose, oral cavity, chest, abdomen, urogenital, limbs and other parts, as well as breathing, exercise, urinary, defecation and behavior changes.
Feeding method: Food was supplied once at 8:009:00 in the morning, 10:00 in the morning, 2:00 in the afternoon, and 4:00 in the afternoon, respectively, to ensure that there was food in the food box and animals ate freely. The remaining feed was removed at 07:40-8:00 in the next day.
Feeding amount: about 250-500 g/animal/day. In the experiment, it was ensured that there was feed in the food box for 24 hours, and the animals can eat freely.
Method for measuring food intake: The feed was estimated by a semi-quantitative method, and the amount of food given, the amount discarded and the remaining amount in food boxes were recorded every day. […]

[2] = all treated females and high-dose males

COC(=O)NCCCn1nc([C@@H](C)N(C(=O)[C@H]2CNCCO2)C2CC2)c2ccc(C)nc21 [compound of Formula I]
APTT (cynomolgus monkeys; Female, 20 mg/kg, d0): 16.7 ± 0.8 s
Fbg (cynomolgus monkeys; Female, 20 mg/kg, d0): 2.0 ± 0.3 g/L
LYMPH (cynomolgus monkeys; Female, 20 mg/kg, d0): 51.3 ± 18.0%
NEUT (cynomolgus monkeys; Female, 20 mg/kg, d0): 42.5 ± 18.8%
WBC (cynomolgus monkeys; Female, 20 mg/kg, d0): 15.3 ± 3.6 ×10^9 · L^−1
APTT (cynomolgus monkeys; Female, 20 mg/kg, d14): 15.9 ± 1.0 s
Fbg (cynomolgus monkeys; Female, 20 mg/kg, d14): 2.9 ± 0.9 g/L
LYMPH (cynomolgus monkeys; Female, 20 mg/kg, d14): 40.8 ± 11.3%
NEUT (cynomolgus monkeys; Female, 20 mg/kg, d14): 52.5 ± 10.4%
WBC (cynomolgus monkeys; Female, 20 mg/kg, d14): 16.0 ± 3.9 ×10^9 · L^−1
APTT (cynomolgus monkeys; Female, 20 mg/kg, d26): 18.3 ± 1.4 s
Fbg (cynomolgus monkeys; Female, 20 mg/kg, d26): 2.8 ± 0.9 g/L
LYMPH (cynomolgus monkeys; Female, 20 mg/kg, d26): 33.1 ± 12.8 %
NEUT (cynomolgus monkeys; Female, 20 mg/kg, d26): 61.4 ± 13.2 %
WBC (cynomolgus monkeys; Female, 20 mg/kg, d26): 19.1 ± 4.0 ×10^9 · L^−1
APTT (cynomolgus monkeys; Female, 20 mg/kg, d 56): 16.4 ± 1.1 s
Fbg (cynomolgus monkeys; Female, 20 mg/kg, d 56): 1.7 ± 0.5 g/L
LYMPH (cynomolgus monkeys; Female, 20 mg/kg, d 56): 53.1 ± 7.4%
NEUT (cynomolgus monkeys; Female, 20 mg/kg, d 56): 38.1 ± 7.1%
WBC (cynomolgus monkeys; Female, 20 mg/kg, d 56): 12.4 ± 1.6 ×10^9 · L^−1
APTT (cynomolgus monkeys; Female, 100 mg/kg, d0): 15.0 ± 1.6 s
Fbg (cynomolgus monkeys; Female, 100 mg/kg, d0): 1.9 ± 0.4 g/L
LYMPH (cynomolgus monkeys; Female, 100 mg/kg, d0): 44.0 ± 16.5%
NEUT (cynomolgus monkeys; Female, 100 mg/kg, d0): 50.5 ± 17.3%
WBC (cynomolgus monkeys; Female, 100 mg/kg, d0): 10.9 ± 2.9 ×10^9 · L^−1
APTT (cynomolgus monkeys; Female, 100 mg/kg, d14): 14.5 ± 0.9 s
Fbg (cynomolgus monkeys; Female, 100 mg/kg, d14): 2.5 ± 0.4 g/L
LYMPH (cynomolgus monkeys; Female, 100 mg/kg, d14): 33.2 ± 4.4 %
NEUT (cynomolgus monkeys; Female, 100 mg/kg, d14): 59.5 ± 5.3 %
WBC (cynomolgus monkeys; Female, 100 mg/kg, d14): 14.0 ± 4.0 ×10^9 · L^−1
APTT (cynomolgus monkeys; Female, 100 mg/kg, d26): 19.7 ± 2.2 s
Fbg (cynomolgus monkeys; Female, 100 mg/kg, d26): 3.5 ± 0.8 g/L
LYMPH (cynomolgus monkeys; Female, 100 mg/kg, d26): 30.0 ± 6.8 %
NEUT (cynomolgus monkeys; Female, 100 mg/kg, d26): 63.2 ± 6.4 %
WBC (cynomolgus monkeys; Female, 100 mg/kg, d26): 15.9 ± 6.2 ×10^9 · L^−1
APTT (cynomolgus monkeys; Female, 100 mg/kg, d 56): 15.8 ± 1.5 s
Fbg (cynomolgus monkeys; Female, 100 mg/kg, d 56): 2.1 ± 0.3 g/L
LYMPH (cynomolgus monkeys; Female, 100 mg/kg, d 56): 48.7 ± 0.6%
NEUT (cynomolgus monkeys; Female, 100 mg/kg, d 56): 45.2 ± 2.3%
WBC (cynomolgus monkeys; Female, 100 mg/kg, d 56): 9.9 ± 1.0 ×10^9 · L^−1
APTT (cynomolgus monkeys; Female, 450 mg/kg, d0): 16.9 ± 1.4 s
Fbg (cynomolgus monkeys; Female, 450 mg/kg, d0): 1.8 ± 0.3 g/L
LYMPH (cynomolgus monkeys; Female, 450 mg/kg, d0): 51.8 ± 12.2%
NEUT (cynomolgus monkeys; Female, 450 mg/kg, d0): 43.3 ± 12.3%
WBC (cynomolgus monkeys; Female, 450 mg/kg, d0): 14.4 ± 1.7 ×10^9 · L^−1
APTT (cynomolgus monkeys; Female, 450 mg/kg, d14): 18.6 ± 0.8 s
Fbg (cynomolgus monkeys; Female, 450 mg/kg, d14): 3.9 ± 0.8 g/L
LYMPH (cynomolgus monkeys; Female, 450 mg/kg, d14): 30.1 ± 14.3 %
NEUT (cynomolgus monkeys; Female, 450 mg/kg, d14): 63.5 ± 15.2 %
WBC (cynomolgus monkeys; Female, 450 mg/kg, d14): 16.9 ± 7.8 ×10^9 · L^−1
APTT (cynomolgus monkeys; Female, 450 mg/kg, d26): 20.1 ± 3.1 s
Fbg (cynomolgus monkeys; Female, 450 mg/kg, d26): 4.2 ± 0.7 g/L
LYMPH (cynomolgus monkeys; Female, 450 mg/kg, d26): 26.9 ± 8.9 %
NEUT (cynomolgus monkeys; Female, 450 mg/kg, d26): 67.5 ± 9.2 %
WBC (cynomolgus monkeys; Female, 450 mg/kg, d26): 18.1 ± 3.7 ×10^9 · L^−1
APTT (cynomolgus monkeys; Female, 450 mg/kg, d 56): 18.0 ± 3.5 s
Fbg (cynomolgus monkeys; Female, 450 mg/kg, d 56): 1.4 ± 0.0 g/L
LYMPH (cynomolgus monkeys; Female, 450 mg/kg, d 56): 53.3 ± 0.3%
NEUT (cynomolgus monkeys; Female, 450 mg/kg, d 56): 42.3 ± 0.6%
WBC (cynomolgus monkeys; Female, 450 mg/kg, d 56): 14.0 ± 4.9 ×10^9 · L^−1
APTT (cynomolgus monkeys; Male, 20 mg/kg, d0): 16.4 ± 1.1 s
Fbg (cynomolgus monkeys; Male, 20 mg/kg, d0): 2.1 ± 0.6 g/L
LYMPH (cynomolgus monkeys; Male, 20 mg/kg, d0): 55.3 ± 14.6%
NEUT (cynomolgus monkeys; Male, 20 mg/kg, d0): 39.9 ± 14.6%
WBC (cynomolgus monkeys; Male, 20 mg/kg, d0): 13.4 ± 2.5 ×10^9 · L^−1
APTT (cynomolgus monkeys; Male, 20 mg/kg, d14): 17.8 ± 2.7 s
Fbg (cynomolgus monkeys; Male, 20 mg/kg, d14): 3.2 ± 0.8 g/L
LYMPH (cynomolgus monkeys; Male, 20 mg/kg, d14): 51.1 ± 19.6%
NEUT (cynomolgus monkeys; Male, 20 mg/kg, d14): 43.1 ± 20.4%
WBC (cynomolgus monkeys; Male, 20 mg/kg, d14): 17.7 ± 9.3 ×10^9 · L^−1
APTT (cynomolgus monkeys; Male, 20 mg/kg, d26): 19.5 ± 2.4 s
Fbg (cynomolgus monkeys; Male, 20 mg/kg, d26): 2.2 ± 0.4 g/L
LYMPH (cynomolgus monkeys; Male, 20 mg/kg, d26): 59.5 ± 11.9%
NEUT (cynomolgus monkeys; Male, 20 mg/kg, d26): 35.1 ± 12.4%
WBC (cynomolgus monkeys; Male, 20 mg/kg, d26): 13.8 ± 6.5 ×10^9 · L^−1
APTT (cynomolgus monkeys; Male, 20 mg/kg, d 56): 21.3 ± 4.0 s
Fbg (cynomolgus monkeys; Male, 20 mg/kg, d 56): 3.1 ± 1.4 g/L
LYMPH (cynomolgus monkeys; Male, 20 mg/kg, d 56): 53.3 ± 14.3%
NEUT (cynomolgus monkeys; Male, 20 mg/kg, d 56): 38.5 ± 12.6%
WBC (cynomolgus monkeys; Male, 20 mg/kg, d 56): 20.1 ± 4.2 ×10^9 · L^−1
APTT (cynomolgus monkeys; Male, 100 mg/kg, d0): 16.6 ± 1.8 s
Fbg (cynomolgus monkeys; Male, 100 mg/kg, d0): 2.2 ± 0.3 g/L
LYMPH (cynomolgus monkeys; Male, 100 mg/kg, d0): 61.5 ± 16.2%
NEUT (cynomolgus monkeys; Male, 100 mg/kg, d0): 32.6 ± 18.2%
WBC (cynomolgus monkeys; Male, 100 mg/kg, d0): 12.6 ± 2.3 ×10^9 · L^−1
APTT (cynomolgus monkeys; Male, 100 mg/kg, d14): 15.5 ± 0.5 s
Fbg (cynomolgus monkeys; Male, 100 mg/kg, d14): 2.8 ± 0.7 g/L
LYMPH (cynomolgus monkeys; Male, 100 mg/kg, d14): 48.0 ± 12.2%
NEUT (cynomolgus monkeys; Male, 100 mg/kg, d14): 45.2 ± 12.2%
WBC (cynomolgus monkeys; Male, 100 mg/kg, d14): 15.6 ± 6.6 ×10^9 · L^−1
APTT (cynomolgus monkeys; Male, 100 mg/kg, d26): 22.5 ± 2.5 s
Fbg (cynomolgus monkeys; Male, 100 mg/kg, d26): 4.1 ± 1.2 g/L
LYMPH (cynomolgus monkeys; Male, 100 mg/kg, d26): 32.1 ± 9.4%
NEUT (cynomolgus monkeys; Male, 100 mg/kg, d26): 60.8 ± 10.5%
WBC (cynomolgus monkeys; Male, 100 mg/kg, d26): 20.3 ± 2.9 ×10^9 · L^−1
APTT (cynomolgus monkeys; Male, 100 mg/kg, d 56): 17.7 ± 1.0 s
Fbg (cynomolgus monkeys; Male, 100 mg/kg, d 56): 1.7 ± 0.3 g/L
LYMPH (cynomolgus monkeys; Male, 100 mg/kg, d 56): 52.7 ± 9.0%
NEUT (cynomolgus monkeys; Male, 100 mg/kg, d 56): 42.5 ± 11.2%
WBC (cynomolgus monkeys; Male, 100 mg/kg, d 56): 14.1 ± 0.2 ×10^9 · L^−1
APTT (cynomolgus monkeys; Male, 450 mg/kg, d0): 17.0 ± 2.1 s
Fbg (cynomolgus monkeys; Male, 450 mg/kg, d0): 2.2 ± 0.7 g/L
LYMPH (cynomolgus monkeys; Male, 450 mg/kg, d0): 48.6 ± 16.8%
NEUT (cynomolgus monkeys; Male, 450 mg/kg, d0): 46.9 ± 17.3%
WBC (cynomolgus monkeys; Male, 450 mg/kg, d0): 12.0 ± 3.8 ×10^9 · L^−1
APTT (cynomolgus monkeys; Male, 450 mg/kg, d14): 16.1 ± 0.8 s
Fbg (cynomolgus monkeys; Male, 450 mg/kg, d14): 3.1 ± 1.0 g/L
LYMPH (cynomolgus monkeys; Male, 450 mg/kg, d14): 35.6 ± 15.5%
NEUT (cynomolgus monkeys; Male, 450 mg/kg, d14): 59.2 ± 16.0%
WBC (cynomolgus monkeys; Male, 450 mg/kg, d14): 16.7 ± 6.4 ×10^9 · L^−1
APTT (cynomolgus monkeys; Male, 450 mg/kg, d26): 20.0 ± 3.3 s
Fbg (cynomolgus monkeys; Male, 450 mg/kg, d26): 4.1 ± 0.6 g/L
LYMPH (cynomolgus monkeys; Male, 450 mg/kg, d26): 26.5 ± 12.0 %
NEUT (cynomolgus monkeys; Male, 450 mg/kg, d26): 68.6 ± 12.3 %
WBC (cynomolgus monkeys; Male, 450 mg/kg, d26): 18.6 ± 5.9 ×10^9 · L^−1
APTT (cynomolgus monkeys; Male, 450 mg/kg, d 56): 19.9 ± 0.3 s
Fbg (cynomolgus monkeys; Male, 450 mg/kg, d 56): 1.8 ± 0.0 g/L
LYMPH (cynomolgus monkeys; Male, 450 mg/kg, d 56): 59.8 ± 22.8%
NEUT (cynomolgus monkeys; Male, 450 mg/kg, d 56): 36.7 ± 23.2%
WBC (cynomolgus monkeys; Male, 450 mg/kg, d 56): 14.6 ± 0.8 ×10^9 · L^−1
LYMPH % (cynomolgus monkeys; [2]): decreased
NEUT % (cynomolgus monkeys; [2]): Increased
APTT (cynomolgus monkeys; high-dose females): increases
Fbg (cynomolgus monkeys; mid- and high-dose animals): increases

COC(=O)NCCCn1nc([C@@H](C)N(C(=O)[C@H]2CNCCO2)C2CC2)c2ccc(C)nc21.O=C(O)C[C@H](O)C(=O)O [malate of compound of Formula I]
adverse events related to administration [1]: no adverse events related to administration
changes in liver function, renal function, food intake, body weight, hematological indicators [1]: no significant changes were observed
